Test system: Aspergillus flavus
Experiment: microbe, parasite or virus in culture
Type: cell-based

Structure (SMILES) | effect on growth of the fungi, in words | inhibition at 50 µg/mL (Aspergillus flavus, 168 h, read-out: percentage of inhibition of growth of the fungi (Aspergillus flavus)) [%]
NC(=NO)c1ccc2nc(-c3ccco3)[nH]c2c1 [6-AFBD, 2-(2-Furyl) benzimidazole-6-carboxamidoxime] | does not inhibit the growth | 
O=C(O)c1ccc2nc(-c3ccco3)[nH]c2c1 [6-CAFBD, 2-(2-Furyl) benzimidazole-6-carboxylic acid] | does not inhibit the growth | 
O=[N+]([O-])c1ccc2nc(-c3ccco3)[nH]c2c1 [6-NFBD, 2-(2-Furyl)-6-nitrobenzimidazole] | does not inhibit the growth | 
c1coc(-c2nc3ccccc3[nH]2)c1 [FBD, 2-(2-Furyl)benzimidazole] |  | 100

Reference: patent publication US20180317484A1 (priority 2017, published 2018)
